Results reported in US11179391B2, “Compound with kinase inhibitory activity and preparation method and use thereof” (priority 2017, dated 2021).

Key:
[1] = Pharmacokinetic study in rats; type: in vivo, Sprague-Dawley rats; conditions: for F / Cmax / Tmax / clearance / half-life / AUC(0-t): male Sprague-Dawley rats; for F: iv 2 mg/kg and oral 5 mg/kg; for clearance in rat plasma (in words) / half-life in rat plasma (in words) / level of exposure at 24 h in rat plasma (in words): at the dose of 10 mg/kg; for Cmax / Tmax / clearance / half-life / AUC(0-t): rat, plasma, study dosed iv 2 mg/kg and oral 5 mg/kg, route of this parameter not given; for AUC(0-t): read-out: AUC0-24 h
Description: Healthy adult Sprague-Dawley rats, male, 7-10 weeks old, weighing 240-270 g, provided by Beijing Vital River Laboratory Animal Technology Co., Ltd., with an animal certificate number of 1140070278736.
Test compounds of the invention: example 17, 33, 40, and 57.
Intravenous administration solvent system of compounds: 10% (V/V) NMP and 90% (20% (V/V)) SBE-β-CD in 16.667 mM PBS with a concentration of 1.0 mg/mL.
Oral administration solvent system of compounds: pure water system containing 0.1% hydroxyethyl cellulose and 0.5% Tween-80, with a concentration of 1 mg/mL.
Intravenous administration: 3 male Sprague-Dawley rats of each test compound were injected intravenously after fasting overnight, with a dose of 2 mg/kg, and the dosing volume was 2 mL/kg. […]
Before the administration, and after administration of 0.0833 (iv), 0.25, 0.5, 1, 2, 4, 8, 12, and 24 h, the jugular vein puncture (approximately 0.15 mL per time point) of each animal was performed by collecting blood from polypropylene tubes. All blood samples were transferred to pre-cooled EDTA-K2 test tubes or pre-cooled plastic microcentrifuge tubes containing 3 μL of 0.5 M EDTA-K2 as anticoagulant and placed on wet ice until centrifugation. Each collected blood was centrifuged at 4° C. for 15 minutes, and plasma was collected. All plasma would be stored in a freezer at about −80° C. until LCMS/MS detection.

[2] = test system: Human colorectal cancer Colo-205 cells; assay: Pharmacodynamic study on mouse Colo-205 model (subcutaneous xenograft); type: in vivo, BALB/c nude mice
Excerpt: BALB/c nude mice, 6-8 weeks old, weighing 12-14 g, female, provided by Shanghai Lab Animal Research Center (Shanghai Xipuer-Beikai) with an animal certificate No: 2008001682093.
The experiment was started after 3-7 days in the experimental environment when the animals arrived. Animals were housed in IVC (independent air supply system) cages (Four animals per cage) in SPF grade experimental animal facilities. Each cage animal information card contained the number of animals in the cage, sex, strain, receiving date, dosing schedule, experiment number, group and start date of the experiment. All cages, bedding, and drinking water were sterilized before use and were updated twice a week.
4.3 Tumor Cell Inoculation Method
Human colorectal cancer Colo-205 cells (ATCC-CCL-222) were cultured in vitro in monolayer under the conditions of RPMI 1640 medium with 10% fetal bovine serum, 100 U/mL penicillin and 100 μg/mL streptomycin, and 37° C. 5% CO2 incubator. The passage was routinely digested with trypsin-EDTA twice a week. When the cell saturation was up to 80%-90% and reached the requirement, the cells were collected, counted and inoculated. 0.2 mL (5×10^6) Colo-205 cells were subcutaneously inoculated on the right back of each mouse, and mice were randomly grouped and dosed when the average tumor volume reached 163 mm^3.
4.14 mL of lactic acid was added to a large beaker containing 800 mL of deionized water, and the pH was adjusted to 4.0 with 5 N NaOH. Then the volume was fixed to 1,000 mL to obtain 50 mmol/L sodium lactate buffer.
The subcutaneous tumor volume of nude mice was measured 2-3 times a week, and the mice were weighed, and the data were recorded.
4.6 Analysis and Evaluation
Experimental evaluation index: the tumor growth inhibition rate TGI (%) or the relative tumor proliferation rate T/C (%) was used for evaluation, wherein T was the experimental group, and C was the vehicle group.

[3] = Colo-205 model, mesylate, 50 mg/kg PO × 28 days, day 28

| Structure (SMILES) | F [1] [%] | clearance in rat plasma (in words) [1] | half-life in rat plasma (in words) [1] | level of exposure at 24 h in rat plasma (in words) [1] | Cmax [1] [ng/mL] | Tmax [1] [h] | clearance [1] [mL/min/kg] | half-life [1] [min] | AUC(0-t) [1] [ng·h/mL] | Tumor volume (day 0) ([2]; Colo-205 model, baseline at start of dosing, mesylate, 50 mg/kg PO × 28 days) [mm^3] | antitumor effect compared with Abemaciclib (in words) ([2]; Colo-205 model, same dosage (50 mg/kg PO × 28 days)) | Tumor volume (day 28) ([2]; Colo-205 model, mesylate, 50 mg/kg PO × 28 days) [mm^3] | T/C relative tumor proliferation rate [2, 3] [%] | TGI tumor growth inhibition rate [2, 3] [%] | inhibitory effect on the tumor growth (in words) ([2]; Colo-205 nude mouse model, 50 mg/kg, continuous PO administration for 28 days) |
| --- | --- | --- | --- | --- | --- | --- | --- | --- | --- | --- | --- | --- | --- | --- | --- |
| CCN1CCC(C(C)c2ccc(Nc3ncc(F)c(-c4cc(F)c5nc(C)n(C(C)C)c5c4)n3)nc2)CC1 (single isomer, unassigned) [Example 17, (R or S)—N-(5-(1-(1-ethylpiperidin-4-yl)ethyl)pyridin-2-yl)-5-fluoro-4-(4-fluoro-1-isopropyl-2-methyl-1H-benzo[d]imidazol-6-yl) pyrimidin-2-amine] | 66.9 | lower clearance | longer half-life | high level of exposure | 225 | 8 | 14.1 | 563 | 3580 | 198 | better antitumor effect than positive control compound Abemaciclib | 591 | 18.2 | 81.8 | strong inhibitory effect |
| CCN1CCC(=Cc2ccc(Nc3ncc(F)c(-c4cc(F)c5nc(C)n(C(C)C)c5c4)n3)nc2)CC1 [Example 57, N-(5-((1-ethylpiperidin-4-ylidene)methyl)pyridin-2-yl)-5-fluoro-4-(4-fluoro-1-isopropyl-2-methyl-1H-benzo[d]imidazol-6-yl)pyrimidin-2-amine] | 57.6 | lower clearance | longer half-life | high level of exposure | 205 | 8 | 14.8 | 702 | 3080 |  |  |  |  |  |  |
